We go through one molecule from patent US20230277444A1, “FORMULATIONS OF PTHrP ANALOGUES, TRANSDERMAL PATCHES THEREOF, AND USES THEREOF” (priority 2018, published 2023).

The structures appear in SMILES notation.

The conditions of data set [1]: cynomolgus monkey, in vivo, sc.
Protocol: (§1) Microneedle transdermal patches coated with various formulations of the PTHrP analogue of SEQ ID NO:1 were provided ready for use and stored refrigerated at 2-8° C. At least one hour prior to use, the transdermal patches in individual pouches were placed at room temperature. Eight female non-naïve Chinese Cynomolgus monkeys (2-4 kg at time of dosing) were included in the study. The same eight animals were used to test each formulation, with a three day washout period between tests.
(§2) Time points were calculated from the time of patch application at 5 minutes, 10 minutes, 20 minutes, 30 minutes, 1 hour, and 1.5 hours post-dose. A time point of pre-dose was taken at Day 1. 1.5 mL of whole blood was collected at each time point. K3EDTA/aprotinin was used as an anti-coagulant.
(§3) Each animal received a fixed dose of SEQ ID NO:1 without correcting for body weight. The dose administration was performed as follows:
(§4) Day 1: Test material was delivered by application of a transdermal patch. The skin was prepared 24 hours prior to each transdermal patch application as follows: a small area (5×5 cm) of the dorsal flank was prepared by close clipping of the hair with a small animal clipper. Care was taken during the clipping procedure to avoid abrasion of the skin. Both sides of the dorsal flank (thigh) were prepared for each administration to ensure a side without skin irritation was used for dose administration. Fifteen (15) minutes prior to patch application the skin was wiped with an alcohol swab. Extra care was taken to ensure the collar of the path was firmly attached to the applicator prior to application and that the transdermal patch was firmly seated on the leg for administration.
(§5) The skin was prepared 24 hours prior to each transdermal patch application as described above. Extra care was taken to ensure the collar of the path is firmly attached to the applicator prior to application and that the transdermal patch was firmly seated on the leg for administration.
(§6) A line was drawn around the site of administration to enable post dose observations. After patch removal, the transdermal patch was analyzed for residual content.
(§7) Any abnormalities were recorded by exception and reported immediately. Each dose site at pre-dose, 1 hour and 24 hours post-dose was scored using the Draize scoring system. Body weights of the animals were recorded prior to Day 1.
(§8) All blood samples were collected from a peripheral vessel. At Day 1, 1.5 mL of whole blood was collected pre-dose into a K3EDTA/aprotinin tube containing 15 μL (of 2.5 mg protein/mL/aprotinin solution) per ml of whole blood. […] Whole blood samples were collected within ±5% of the scheduled collection time, with actual collection times recorded. Samples were kept on wet ice until processed.
(§9) The whole blood samples were processed to plasma. […] Plasma samples were transferred to two approximately equal aliquots (aliquot 1 and aliquot 2). Samples were frozen at −70° C.±10° C.
A short description of data set [2]: in vivo. The conditions noted are these: female, Chinese Cynomolgus, cynomolgus monkey, sc.
Protocol: as §1, §2, §3, §4, §5, §6, §7, §8, §9

In general, Cmax refers to the maximum level reached in the sampled fluid or tissue. One may read the Tmax as the time from dosing to the highest level. As a reminder, the half-life is the time in which the quantity being followed falls by half. `CC[C@H](C)[C@H](NC(=O)[C@H](CO)NC(=O)[C@H](CCCCN)NC(=O)CNC(=O)[C@H](CCCCN)NC(=O)[C@H](CC(=O)O)NC(=O)[C@H](Cc1cnc[nH]1)NC(=O)[C@H](CC(C)C)NC(=O)[C@H](CC(C)C)NC(=O)[C@H](CCC(N)=O)NC(=O)[C@H](Cc1cnc[nH]1)NC(=O)[C@H](CCC(=O)O)NC(=O)[C@H](CO)NC(=O)[C@@H](NC(=O)[C@H](C)N)C(C)C)C(=O)N[C@@H](CCC(N)=O)C(=O)N[C@@H](CC(=O)O)C(=O)N[C@@H](CC(C)C)C(=O)N[C@@H](CCCNC(=N)N)C(=O)N[C@@H](CCCNC(=N)N)C(=O)N[C@@H](CCCNC(=N)N)C(=O)N[C@@H](CCC(=O)O)C(=O)N[C@@H](CC(C)C)C(=O)N[C@@H](CC(C)C)C(=O)N[C@@H](CCC(=O)O)C(=O)N[C@@H](CCCCN)C(=O)N[C@@H](CC(C)C)C(=O)N[C@@H](CC(C)C)C(=O)NC(C)(C)C(=O)N[C@@H](CCCCN)C(=O)N[C@@H](CC(C)C)C(=O)N[C@@H](Cc1cnc[nH]1)C(=O)N[C@H](C(=O)N[C@@H](C)C(N)=O)[C@@H](C)O` [Abaloparatide, [Glu^22,25, Leu^23,28,31, Aib^29, Lys^26,30]hPTHrP(1-34)NH2] registered an AUC in data set [1] of 131610. In data set [2], the maximum concentration (Cmax) stood at 3.34 ng/mL, the time of peak concentration (Tmax) is 7 min, the half-life was found to be 14 min and the level at 5 min is 1.9 ng/mL. In data set [2], this molecule came in with a level at 10 min of 0.88 ng/mL, a level at 20 min of 0.542 ng/mL, a level at 0.5 h of 0.222 ng/mL and a level at 1 h of 0.12 ng/mL.
